The source of these data is patent publication US20110263610A1, “COMPOUNDS AND COMPOSITIONS AS ITPKB INHIBITORS” (IRM LLC, priority 2008, published 2011).

For orientation: IC50 means the concentration that gives 50% inhibition.

In one assay the target is T1, ITPKb (Mus musculus, UniProt B2RXC2).
T1 construct: murine ITPKb residues 640-942; MGSDKIHHHHHH (His6 tag from MH4 plasmid) (N); made in house; host or cells: Escherichia coli HK100
T1 sequence (B2RXC2 640-942): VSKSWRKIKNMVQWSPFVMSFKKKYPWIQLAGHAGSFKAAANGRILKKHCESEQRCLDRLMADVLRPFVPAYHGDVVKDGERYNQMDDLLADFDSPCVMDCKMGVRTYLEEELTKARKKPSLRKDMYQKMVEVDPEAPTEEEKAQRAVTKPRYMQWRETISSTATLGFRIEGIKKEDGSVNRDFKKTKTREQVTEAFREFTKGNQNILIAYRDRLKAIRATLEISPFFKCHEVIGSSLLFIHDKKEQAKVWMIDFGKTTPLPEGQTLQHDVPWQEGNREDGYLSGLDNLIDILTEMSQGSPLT
Nature of the assay: Biochemical measurement of ITPKb activity (Kinase-Glo ATP depletion assay); inhibiting the phosphorylation of IP3 to IP4. Also noted: species or system murine. As to conditions: Table 1; inhibiting the phosphorylation of IP3 to IP4; read-out: IC50. How it is done:
Compounds of the present invention are assayed to measure their capacity to inhibit ITPKb according to the following assays.
The DNA sequence encoding murine ITPKb residues 640-942 is amplified from a full-length construct in mammalian expression vector pKDNZ by PCR. The 3′-primer incorporates a stop codon and an overhanging PacI site. The product is digested with Pad before being ligated into the MH4 plasmid which has been prepared by digestion with PmlI and PacI. Cloning into the MH4 plasmid adds the sequence MGSDKIHHHHHH to the N-terminus of the translated region. Mutant enzymes are made by site-directed mutagenesis using the Stratagene Quikchange kit.
ITPKb is expressed in the HK100 strain of Escherichia coli. Typically, a 4 L batch of cells is grown in LB with […] ampicillin to 0.5 A600 at 30 degrees C., before induction with 0.02% L-arabinose for 6 hours. Cells are harvested by centrifugation, and pellets are resuspended in 50 mL of 50 mM Tris (pH 8), 100 mM NaCl, 1 mM TCEP, and 0.1 mg/mL lysozyme, with 1 Complete protease inhibitor tablet (Roche). Cells are disrupted by sonication, and debris is removed by centrifugation for 40 minutes at 35000 g.
Initial purification is performed using three nickel-Sepharose Hi-Trap HP 1 mL columns (Amersham) connected in series. After application of the pellet supernatants, the bound material is washed with 20 mM Tris (pH 8.0), 20 mM imidazole, 10% glycerol (v/v), and 1 mM TCEP before elution with an imidazole gradient up to 200 mM.
Fractions containing ITPKb are identified by SDS-PAGE, and the pure fractions are concentrated and buffer exchanged using centriprep 20 15 kDa columns into 20 mM Tris (pH 8), 200 mM KCl, 5 mM MgCl2, 0.5 mM DTT, 10% glycerol, 1 μM IP3, and 20 μM ATP to a final protein concentration of 7 mg/mL.
ITPKb activity is determined using the Kinase-Glo (Promega) ATP depletion assay. The assay reaction buffer consists of 50 mM Tris (pH 8.0), 100 mM NaCl, 1 mM DTT, 10% glycerol, 5 mM MgCl2, 1 μM ATP, and 10 μM IP3 (Alexis Biochemicals). 50 nl of inhibitor is then added to each 40 μL reaction followed by a 10 μL addition of purified ITPKb (final concentration of 60 nM). The reaction mixture is incubated for 60 minutes at room temperature and stopped by the addition of an equal volume of kinase-glo reagent (Promega). Luminescence is measured using a Molecular Devices Acquest instrument.
For orientation: In Kinase-Glo more light means more ATP remaining.
Regarding `C[C@@H]1CN(Cc2c[nH]nc2-c2ccc(C#N)c(=O)[nH]2)CCN1c1ccc(C(F)(F)F)cn1` [Example 21], the IC50 stood at 49 nM.
On the same count and under the same terms, then `CC(O)CNC(=O)c1c[nH]c(-c2n[nH]cc2CN2CCN(c3ccc(C(F)(F)F)cn3)[C@H](C)C2)c1` (some centres unmarked) [Example 43], with 14 nM; and `C[C@@H]1CN(Cc2c[nH]nc2C2CCNCC2)CCN1c1ccc(C(F)(F)F)cn1` [Example 48], with 431 nM; and `C[C@@H]1CN(Cc2c[nH]nc2C(=O)Nc2cc(-c3ccco3)n[nH]2)CCN1c1ccc(C(F)(F)F)cn1` [Example 31], with 5330 nM.
Same read-out and setting: the same measure for `C[C@@H]1CN(Cc2c[nH]nc2C2CCN(C=O)CC2)CCN1c1ccc(C(F)(F)F)cn1` [Example 49]: 241 nM; for `C[C@@H]1CN(Cc2c[nH]nc2-c2cc(C(=O)NCCO)c[nH]2)CCN1c1ccc(C(F)(F)F)cn1` [Example 42]: 14 nM.
Still for that read-out and setting: then `C[C@@H]1CN(Cc2c[nH]nc2C(=O)N2CCC(O)CC2)CCN1c1ccc(C(F)(F)F)cn1` [Example 36], with over 10000 nM; and `C[C@@H]1CN(Cc2c[nH]nc2-c2c[nH]c3ncccc23)CCN1c1ccc(C(F)(F)F)cn1` [Example 44], with 182 nM; and `C[C@@H]1CN(Cc2c[nH]nc2/C=C2\NC(=N)NC2=O)CCN1c1ccc(C(F)(F)F)cn1` [Example 50], with 99 nM.
In the case of `C[C@@H]1CN(Cc2c[nH]nc2-c2nc3c([nH]2)CCCC3)CCN1c1ccc(C(F)(F)F)cn1` [Example 26], the IC50 was 5010 nM.
On to `C[C@@H]1CN(Cc2c[nH]nc2C(=O)N2CC(O)C2)CCN1c1ccc(C(F)(F)F)cn1` [Example 34], for which the IC50 was over 10000 nM.
In the case of `C[C@@H]1CN(Cc2c[nH]nc2C(=O)Nc2n[nH]cc2C#N)CCN1c1ccc(C(F)(F)F)cn1` [Example 33], the IC50 is over 10000 nM.
Consider `COC(=O)c1ccc(-c2n[nH]cc2CN2CCN(c3ccc(C(F)(F)F)cn3)[C@H](C)C2)o1` [Example 37], for which the IC50 worked out at 984 nM.
On the same count and under the same terms, then `C[C@@H]1CN(Cc2c[nH]nc2/C=C2\NC(=S)NC2=O)CCN1c1ccc(C(F)(F)F)cn1` [Example 46], with over 10000 nM; and `C[C@@H]1CN(Cc2c[nH]nc2-c2ccc(C(N)=O)o2)CCN1c1ccc(C(F)(F)F)cn1` [Example 39], with 8 nM.
`C[C@@H]1CN(Cc2c[nH]nc2-c2cc(C(N)=O)co2)CCN1c1ccc(C(F)(F)F)cn1` [Example 53]: the IC50 is 78 nM.
Consider `CC(=O)N1CC=C(c2n[nH]cc2CN2CCN(c3ccc(C(F)(F)F)cn3)[C@H](C)C2)CC1` [Example 47], for which the IC50 was 66 nM.
As for `C[C@@H]1CN(Cc2c[nH]nc2C(=O)N2CCC(O)C2)CCN1c1ccc(C(F)(F)F)cn1` (some centres unmarked) [Example 35], the IC50 is over 10000 nM.
Same read-out and setting: the same measure for `Cc1nc(-c2n[nH]cc2CN2CCN(c3ccc(C(F)(F)F)cn3)[C@H](C)C2)[nH]c1C` [Example 25]: over 10000 nM; for `C[C@@H]1CN(Cc2c[nH]nc2-c2nc3cc(C#N)ccc3[nH]2)CCN1c1ccc(C(F)(F)F)cn1` [Example 28]: 2450 nM; for `C[C@@H]1CN(Cc2c[nH]nc2-c2cc(C(=O)N[C@@H](C)CO)c[nH]2)CCN1c1ccc(C(F)(F)F)cn1` [Example 45]: 6 nM.
On the same count and under the same terms, the same measure for `C[C@@H]1CN(Cc2c[nH]nc2-c2nc3cc(F)ccc3[nH]2)CCN1c1ccc(C(F)(F)F)cn1` [Example 27]: 9800 nM.
As to `Cc1cc(NC(=O)c2n[nH]cc2CN2CCN(c3ccc(C(F)(F)F)cn3)[C@H](C)C2)n(CCN(C)C)n1` [Example 32], the IC50 was 6190 nM.

Staying with this assay, now noted: Table 2; inhibiting the phosphorylation of IP3 to IP4; read-out: IC50.
Turning to `C[C@@H]1CN(Cc2c[nH]nc2-c2cc3ccccc3[nH]2)CCN1c1ccc(C(F)(F)F)cn1` [Example 8, (R)-2-(4-((3-methyl-4-(5-(trifluoromethyl)pyridin-2-yl)piperazin-1-yl)methyl)-1H-pyrazol-3-yl)-1H-indole], the IC50 amounted to 192 nM.
In the case of `C[C@@H]1CN(Cc2c[nH]nc2-c2nc(C(=N)N)c[nH]2)CCN1c1ccc(C(F)(F)F)cn1` [Example 12, (R)-2-(4-((3-methyl-4-(5-(trifluoromethyl)pyridin-2-yl)piperazin-1-yl)methyl)-1H-pyrazol-3-yl)-1H-imidazole-4-carboximidamide], the IC50 worked out at 475 nM.
The same measure, in the same setting: the same measure for `C[C@@H]1CN(Cc2c[nH]nc2-c2nc3cnccc3[nH]2)CCN1c1ccc(C(F)(F)F)cn1` [Example 16, (R)-2-(4-((3-methyl-4-(5-(trifluoromethyl)pyridin-2-yl)piperazin-1-yl)methyl)-1H-pyrazol-3-yl)-1H-imidazo[4,5-c]pyridine]: 975 nM; for `C[C@@H]1CN(Cc2c[nH]nc2C=C2NC(=O)NC2=O)CCN1c1ccc(C(F)(F)F)cn1` [Example 17, R-5-((4-((3-methyl-4-(5-(trifluoromethyl)pyridin-2-yl)piperazin-1-yl)methyl)-1H-pyrazol-3-yl)methylene)imidazolidine-2,4-dione]: 531 nM; for `C[C@@H]1CN(Cc2c[nH]nc2C(=O)Nc2ccncc2)CCN1c1ccc(C(F)(F)F)cn1` [Example 18, (R)-4-((3-methyl-4-(5-(trifluoromethyl)pyridin-2-yl)piperazin-1-yl)methyl)-N-(pyridin-4-yl)-1H-pyrazole-3-carboxamide]: 449 nM.
As for `C[C@@H]1CN(Cc2c[nH]nc2-c2nc(C(F)(F)F)c[nH]2)CCN1c1ccc(C(F)(F)F)cn1` [Example 11, (R)-2-methyl-4-((3-(4-(trifluoromethyl)-1H-imidazol-2-yl)-1H-pyrazol-4-yl)methyl)-1-(5-(trifluoromethyl)pyridin-2-yl)piperazine], the IC50 came to 1480 nM.

The assay is the same for the next values; noted with them: read-out: IC50 in inhibiting the phosphorylation of IP3 to IP4.
Turning to `C[C@@H]1CN(Cc2c[nH]nc2-c2c[nH]c(C(N)=O)c2)CCN1c1ccc(C(F)(F)F)cn1` [Example 7, (R)-4-(4-((3-methyl-4-(5-(trifluoromethyl)pyridin-2-yl)piperazin-1-yl)methyl)-1H-pyrazol-3-yl)-1H-pyrrole-2-carboxamide], the IC50 was found to be 2 nM.
In the case of `C[C@@H]1CN(Cc2c[nH]nc2-c2ccc(C#N)[nH]2)CCN1c1ccc(C(F)(F)F)cn1` [Example 4, (R)-5-(4-((3-methyl-4-(5-(trifluoromethyl)pyridin-2-yl)piperazin-1-yl)methyl)-1H-pyrazol-3-yl)-1H-pyrrole-2-carbonitrile], the IC50 came out at 81 nM.
Take `C[C@@H]1CN(Cc2c[nH]nc2-c2ccc(C(N)=O)[nH]2)CCN1c1ccc(C(F)(F)F)cn1` [Example 5, (R)-5-(4-((3-methyl-4-(5-(trifluoromethyl)pyridin-2-yl)piperazin-1-yl)methyl)-1H-pyrazol-3-yl)-1H-pyrrole-2-carboxamide]: the IC50 was found to be 28 nM.
On the same count and under the same terms, then `CNC(=O)c1c[nH]c(-c2n[nH]cc2CN2CCN(c3ccc(C(F)(F)F)cn3)[C@H](C)C2)c1` [Example 3, (R)—N-methyl-5-(4-((3-methyl-4-(5-(trifluoromethyl)pyridin-2-yl)piperazin-1-yl)methyl)-1H-pyrazol-3-yl)-1H-pyrrole-3-carboxamide], with 11 nM.
Consider `C[C@@H]1CN(Cc2c[nH]nc2-c2cc(C#N)c[nH]2)CCN1c1ccc(C(F)(F)F)cn1` [Example 1, (R)-5-(4-((3-methyl-4-(5-(trifluoromethyl)pyridin-2-yl)piperazin-1-yl)methyl)-1H-pyrazol-3-yl)-1H-pyrrole-3-carbonitrile], for which the IC50 was 9 nM.
With `C[C@@H]1CN(Cc2c[nH]nc2-c2c[nH]c(C#N)c2)CCN1c1ccc(C(F)(F)F)cn1` [Example 6, (R)-4-(4-((3-methyl-4-(5-(trifluoromethyl)pyridin-2-yl)piperazin-1-yl)methyl)-1H-pyrazol-3-yl)-1H-pyrrole-2-carbonitrile], the IC50 turned out to be 6 nM.
